US6737383B1, “Herbicidal oxadiazolidines” (priority 1999, dated 2004)

Experiments:
sugar beet [1] = assay: Test E sugar beet; format: in vivo, Beta vulgaris; details: Preemergence
winter barley = assay: Test E winter barley; format: in vivo, Hordeum vulgare; details: Postemergence
Method: (§1) Compounds evaluated in this test were formulated in a non-phytotoxic solvent mixture which included a surfactant and applied to plants that were in the 1- to 4-leaf stage (postemergence application). A mixture of sandy loam soil and greenhouse potting mix in a 60:40 ratio was used for the postemergence test.
(§2) Plantings of these crops and weed species were adjusted to produce plants of appropriate size for the postemergence test. All plant species were grown using normal greenhouse practices. Crop and weed species include annual bluegrass (Poa annua), blackgrass (Alopecurus myosuroides), black nightshade (Solanum nigra), chickweed (Stellaria media), common poppy (Papaver rhoeas), deadnettle (Lamium amplexicaule), downy brome (Bromus tectorum), field violet (Viola arvensis), galium (Galium aparine), green foxtail (Setaria viridis), Italian ryegrass (Lolium multiflorum), jointed goatgrass (Aegilops cylindrica), kochia (Kochia scoparia), lambsquarters (Chenopodium album), littleseed canarygrass (Phalaris minor), rape (Brassica napus), redroot pigweed (Amaranthus retroflexus), Russian thistle (Salsola kali), scentless chamomile (Matricaria inodora), spring barley (Hordeum vulgare), sugar beet (Beta vulgaris), sunflower (Helianthus annuus), ivyleaf speedwell (Veronica hederaefolia), spring wheat (Triticum aestivum), winter wheat (Triticum aestivum), wild buckwheat (Polygonum convolvulus), wild mustard (Sinapis arvensis), wild oat (Avena fatua), windgrass (Apera spica-venti) and winter barley (Hordeum vulgare).
(§3) Treated plants and untreated controls were maintained in a greenhouse for approximately 21 to 28 days, after which all treated plants were compared to untreated controls and visually evaluated. […] A dash response (-) means no test result.

jointed goatgrass = assay: Test E jointed goatgrass; format: in vivo, Aegilops cylindrica; details: Preemergence
arrowleaf sida = assay: Test C postemergence arrowleaf sida; format: in vivo, Sida rhombifolia; details: 0 to 100 scale, 0 no effect, 100 complete control
Method: (§4) Compounds evaluated in this test were formulated in a non-phytotoxic solvent mixture which included a surfactant and applied to plants that were grown for various periods of time before treatment (postemergence application). A mixture of sandy loam soil and greenhouse potting mix in a 60:40 ratio was used for the postemergence test.
(§5) Plantings of these crops and weed species were adjusted to produce plants of appropriate size for the postemergence test. All plant species were grown using normal greenhouse practices. Crop and weed species include arrowleaf sida (Sida rhombifolia), barnyardgrass (Echinochloa crus-galli), cocklebur (Xanthium strumarium), common ragweed (Ambrosia elatior), corn (Zea mays), cotton (Gossypium hirsutum), eastern black nightshade (Solanum ptycanthum), fall panicum (Panicum dichotomiflorum), field bindweed (Convolvulus arvensis), giant foxtail (Setaria faberii), hairy beggarticks (Bidens pilosa), ivyleaf morningglory (Ipomoea hederacea), johnsongrass (Sorghum halepense), ladysthumb smartweed (Polygonum persicaria), lambsquarters (Chenopodium album), large crabgrass (Digitaria sanguinalis), purple nutsedge (Cyperus rotundus), redroot pigweed (Amaranthus retroflexus), soybean (Glycine max), surinam grass (Brachiaria decumbens), velvetleaf (Abutilon theophrasti) and wild poinsettia (Euphorbia heterophylla).
(§6) Treated plants and untreated controls were maintained in a greenhouse for approximately 14, to 21 days, after which all treated plants were compared to untreated controls and visually evaluated. Plant response ratings, summarized in Table C, were based upon a 0 to 100 scale where 0 was no effect and 100 was complete control. A dash response (−) means no test result.

sugar beet [2] = assay: Test E sugar beet; format: in vivo, Beta vulgaris; details: Postemergence
Method: as §1, §2, §3

lambsquarters [3] = assay: Test C postemergence lambsquarters; format: in vivo, Chenopodium album; details: 0 to 100 scale, 0 no effect, 100 complete control
Method: as §4, §5, §6

redroot pigweed = assay: Test E redroot pigweed; format: in vivo, Amaranthus retroflexus; details: Preemergence
surinam grass = assay: Test C postemergence surinam grass; format: in vivo, Brachiaria decumbens; details: 0 to 100 scale, 0 no effect, 100 complete control
Method: as §4, §5, §6

lambsquarters [4] = assay: Test E lambsquarters; format: in vivo, Chenopodium album; details: Postemergence
Outline: (§7)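 For postemergence, plants at the 1- to 4-leaf stage, in a 60:40 mix of sandy loam and potting mix, treated with compound formulated in a surfactant-containing non-phytotoxic solvent. Visual assessment versus untreated controls followed roughly 21–28 days in the greenhouse.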

sunflower = assay: Test E sunflower; format: in vivo, Helianthus annuus; details: Postemergence
Method: as §2, with “Plantings of these crops and weed species were adjusted to produce plants of appropriate size for the postemergence test.” left out
as §3

hairy beggarticks = assay: Test C postemergence hairy beggarticks; format: in vivo, Bidens pilosa; details: 0 to 100 scale, 0 no effect, 100 complete control
Method: as §4, §5, §6

johnsongrass = assay: Test C postemergence johnsongrass; format: in vivo, Sorghum halepense; details: 0 to 100 scale, 0 no effect, 100 complete control
Method: as §4, §5, §6

wild oat = assay: Test E wild oat; format: in vivo, Avena fatua; details: Postemergence
Outline: as §7

field violet = assay: Test E field violet; format: in vivo, Viola arvensis; details: Postemergence
Outline: as §7

[5] = Rate 125 g/ha, 0 to 100 scale (0 no effect, 100 complete control)
[6] = Rate 500 g/ha, 0 to 100 scale where 0 is no effect and 100 is complete control
[7] = Rate 500 g/ha, 0 to 100 scale, 0 no effect, 100 complete control
[8] = Rate 250 g/ha, 0 to 100 scale where 0 is no effect and 100 is complete control
[9] = Rate 250 g/ha, 0 to 100 scale (0 no effect, 100 complete control)

## CC(C)N(C(=O)n1oc(=O)n(C(C)C)c1=O)c1ccc(F)cc1 [Compound 131]
Sugar beet [1]; [5]
  Plant response rating, Sugar beet: 80
Sugar beet [1]; Rate 250 g/ha
  Sugar beet plant response rating (0 to 100 scale): 60
Sugar beet [1]; [6]
  Plant response rating, Sugar beet: 90
Winter barley; Rate 62 g/ha, 0 to 100 scale
  Plant response rating, Barley (winter): 5
Winter barley; Rate 125 g/ha, 0 to 100 scale
  Plant response rating, Barley (winter): 0
Winter barley; [7]
  Plant response rating, Barley (winter): 20
Winter barley; [8]
  Barley (winter) plant response rating: 0
Jointed goatgrass; [5]
  Plant response rating, Jointed goatgra: 50
Jointed goatgrass; Rate 250 g/ha
  Jointed goatgra plant response rating (0 to 100 scale): 70
Jointed goatgrass; [6]
  Plant response rating, Jointed goatgra: 95
Arrowleaf sida; Rate 280 g/ha
  Plant response rating Arrowleaf sida: 10
Arrowleaf sida; Rate 560 g/ha
  Plant response rating Arrowleaf sida: 30
Arrowleaf sida; Rate 1120 g/ha
  Plant response rating Arrowleaf sida: 60
Sugar beet [2]; Rate 62 g/ha, 0 to 100 scale
  Plant response rating, Sugar beet: 0
Sugar beet [2]; Rate 125 g/ha, 0 to 100 scale
  Plant response rating, Sugar beet: 0
Sugar beet [2]; [7]
  Plant response rating, Sugar beet: 0
Sugar beet [2]; [8]
  Sugar beet plant response rating: 0
Lambsquarters [3]; Rate 140 g/ha
  Plant response rating, Lambsquarters: 0
Lambsquarters [3]; Rate 280 g/ha
  Plant response rating, Lambsquarters: 0
Lambsquarters [3]; Rate 1120 g/ha
  Plant response rating, Lambsquarters: 0
Redroot pigweed; [5]
  Plant response rating, Redroot pigweed: 100
Redroot pigweed; Rate 250 g/ha
  Redroot pigweed plant response rating (0 to 100 scale): 100
Redroot pigweed; [6]
  Plant response rating, Redroot pigweed: 95
Surinam grass; Rate 140 g/ha
  Plant response rating, Surinam grass: 0
Surinam grass; Rate 280 g/ha
  Plant response rating, Surinam grass: 80
Surinam grass; Rate 560 g/ha
  Plant response rating, Surinam grass: 85
Surinam grass; Rate 1120 g/ha
  Plant response rating, Surinam grass: 90
Lambsquarters [4]; Rate 62 g/ha, 0 to 100 scale
  Plant response rating, Lambsquarters: 0
Lambsquarters [4]; Rate 125 g/ha, 0 to 100 scale
  Plant response rating, Lambsquarters: 0
Lambsquarters [4]; [7]
  Plant response rating, Lambsquarters: 0
Lambsquarters [4]; [8]
  Lambsquarters plant response rating: 0
sunflower; Rate 62 g/ha, 0 to 100 scale
  Plant response rating, Sunflower: 10
sunflower; Rate 125 g/ha, 0 to 100 scale
  Plant response rating, Sunflower: 0
sunflower; [7]
  Plant response rating, Sunflower: 0
sunflower; [8]
  Sunflower plant response rating: 0
Hairy beggarticks; Rate 140 g/ha
  Plant response rating H. beggarticks: 0
Hairy beggarticks; Rate 560 g/ha
  Plant response rating H. beggarticks: 40
Hairy beggarticks; Rate 1120 g/ha
  Plant response rating H. beggarticks: 70
johnsongrass; Rate 140 g/ha
  Plant response rating Johnsongrass: 15
johnsongrass; Rate 280 g/ha
  Plant response rating Johnsongrass: 40
johnsongrass; Rate 560 g/ha
  Plant response rating Johnsongrass: 60
johnsongrass; Rate 1120 g/ha
  Plant response rating Johnsongrass: 70
Wild oat; Rate 62 g/ha, 0 to 100 scale
  Plant response rating, Wild oat: 40
Wild oat; Rate 125 g/ha, 0 to 100 scale
  Plant response rating, Wild oat: 0
Wild oat; [7]
  Plant response rating, Wild oat: 70
Wild oat; [8]
  Wild oat plant response rating: 20
Field violet; Rate 62 g/ha, 0 to 100 scale
  Plant response rating, Field violet: 60
Field violet; Rate 125 g/ha, 0 to 100 scale
  Plant response rating, Field violet: 0
Field violet; [7]
  Plant response rating, Field violet: 0
Field violet; [8]
  Field violet plant response rating: 0

## CC(C)N(C(=O)n1oc(=O)n(C(C)C)c1=O)c1ccc(Cl)cc1 [Compound 114]
Sugar beet [1]; [5]
  Plant response rating, Sugar beet: 20
Sugar beet [1]; Rate 250 g/ha, 0 to 100 scale
  Plant response rating, Sugar beet: 40
Sugar beet [1]; [6]
  Plant response rating, Sugar beet: 50
Winter barley; Rate 125 g/ha, 0 to 100 scale
  Plant response rating, Barley (winter): 5
Winter barley; [9]
  Plant response rating, Barley (winter): 10
Winter barley; [7]
  Plant response rating, Barley (winter): 20
Jointed goatgrass; [5]
  Plant response rating, Jointed goatgra: 20
Jointed goatgrass; Rate 250 g/ha, 0 to 100 scale
  Plant response rating, Jointed goatgra: 65
Jointed goatgrass; [6]
  Plant response rating, Jointed goatgra: 50
Sugar beet [2]; Rate 125 g/ha, 0 to 100 scale
  Plant response rating, Sugar beet: 50
Sugar beet [2]; [9]
  Plant response rating, Sugar beet: 55
Sugar beet [2]; [7]
  Plant response rating, Sugar beet: 50
Redroot pigweed; [5]
  Plant response rating, Redroot pigweed: 50
Redroot pigweed; Rate 250 g/ha, 0 to 100 scale
  Plant response rating, Redroot pigweed: 65
Redroot pigweed; [6]
  Plant response rating, Redroot pigweed: 100
Lambsquarters [4]; Rate 125 g/ha, 0 to 100 scale
  Plant response rating, Lambsquarters: 30
Lambsquarters [4]; [9]
  Plant response rating, Lambsquarters: 30
Lambsquarters [4]; [7]
  Plant response rating, Lambsquarters: 40
sunflower; Rate 125 g/ha, 0 to 100 scale
  Plant response rating, Sunflower: 10
sunflower; [9]
  Plant response rating, Sunflower: 10
sunflower; [7]
  Plant response rating, Sunflower: 15
Wild oat; Rate 125 g/ha, 0 to 100 scale
  Plant response rating, Wild oat: 0
Wild oat; [9]
  Plant response rating, Wild oat: 0
Wild oat; [7]
  Plant response rating, Wild oat: 0
Field violet; Rate 125 g/ha, 0 to 100 scale
  Plant response rating, Field violet: 0
Field violet; [9]
  Plant response rating, Field violet: 0
Field violet; [7]
  Plant response rating, Field violet: 15

## CCn1c(=O)on(C(=O)N(c2ccccc2)C(C)C)c1=O [Compound 117]
Arrowleaf sida; Rate 140 g/ha
  Plant response rating Arrowleaf sida: 0
Arrowleaf sida; Rate 280 g/ha
  Plant response rating Arrowleaf sida: 0
Arrowleaf sida; Rate 560 g/ha
  Plant response rating Arrowleaf sida: 0
Arrowleaf sida; Rate 1120 g/ha
  Plant response rating Arrowleaf sida: 50
Lambsquarters [3]; Rate 140 g/ha
  Plant response rating, Lambsquarters: 0
Lambsquarters [3]; Rate 280 g/ha
  Plant response rating, Lambsquarters: 0
Lambsquarters [3]; Rate 560 g/ha
  Plant response rating, Lambsquarters: 0
Lambsquarters [3]; Rate 1120 g/ha
  Plant response rating, Lambsquarters: 0
Surinam grass; Rate 140 g/ha
  Plant response rating, Surinam grass: 0
Surinam grass; Rate 280 g/ha
  Plant response rating, Surinam grass: 0
Surinam grass; Rate 560 g/ha
  Plant response rating, Surinam grass: 40
Surinam grass; Rate 1120 g/ha
  Plant response rating, Surinam grass: 90
Hairy beggarticks; Rate 1120 g/ha
  Plant response rating H. beggarticks: 0
johnsongrass; Rate 140 g/ha
  Plant response rating Johnsongrass: 10
johnsongrass; Rate 280 g/ha
  Plant response rating Johnsongrass: 35
johnsongrass; Rate 560 g/ha
  Plant response rating Johnsongrass: 40
johnsongrass; Rate 1120 g/ha
  Plant response rating Johnsongrass: 85
